Source: patent US20030044399A1, “Method of treatment” (SmithKline Beecham Corporation, priority 1998, published 2003)
Like-named read-outs stand apart in the source and are kept apart here.

Tests used:
Schisto B 1 = Schisto B 1 (Schistosoma mansoni, UniProt P25792); test: Cysteine protease inhibition, progress curve method, schistosoma B 1; type: biochemical; conditions: 10 uM Cbz-Phe-Arg-AMC, 100 mM Na acetate pH 5.5, 5 mM cysteine; read-out: Schisto B 1 Ki
Description: (§1) Standard assay conditions for the determination of kinetic constants used 10 uM fluorogenic peptide substrate, Cbz-Phe-Arg-AMC for the cysteine proteases from Leishmania spp and Schistosoma Mansoni, Cbz-Leu-Arg-AMC for the cysteine proteases from Plasmodium falciparum and Trypanosoma brucei rhodesiensi, and Ac-Lys-Glu-Lys-Leu-Arg-AMC (4 uM final substrate concentration) for the cysteine protease from Trypoanosoma cruzi, and were determined in 100 mM Na acetate at pH 5.5 containing 5 mM cysteine. Stock substrate solutions were prepared at concentrations of […] in DMSO with 10 uM (4 uM for Ac-Lys-Glu-Lys-Leu-Arg-AMC) final substrate concentration in the assays. The final DMSO concentration was 2% and the final volume was 100 uL. All assays were conducted at ambient temperature. Product progress curves were generated over 20 to 30 minutes following formation of AMC product.
(§2) Potential inhibitors were evaluated using the progress curve method. Assays were carried out in the presence of variable concentrations of test compound. Reactions were initiated by addition of enzyme to buffered solutions of inhibitor and substrate. Data analysis was conducted according to one of two procedures depending on the appearance of the progress curves in the presence of inhibitors. For those compounds whose progress curves were linear, apparent inhibition constants (Ki,app) were calculated according to equation 1 (Brandt et al., Biochemitsry, 1989, 28, 140):
(§3) v=VmA/[Ka(1+I/Ki,app)+A] (1)
(§4) Where v is the velocity of the reaction with maximal velocity Vm, A is the concentration of substrate with Michaelis constant of Ka, and I is the concentration of inhibitor.
(§5) [AMC]=vsst+(v0−vss)[1−exp (−kobst)]/kobs (2)
(§6) Where [AMC] is the concentration of product formed over time t, v0 is the initial reaction velocity and vss is the final steady state rate. Values for kobs were then analyzed as a linear function of inhibitor concentration to generate an apparent second order rate constant (kobs/inhibitor concentration or kobs/[I]) describing the time-dependent inhibition. A complete discussion of this kinetic treatment has been fully described (Morrison et al., Adv. Enzymol. Relat. Areas Mol. Biol., 1988, 61, 201).
(§7) Exemplary inhibition data for the compounds used in the present method collected in accordance with the above-described procedure are listed in Table I.

Schisto B 2 = Schisto B 2 (Schistosoma mansoni, UniProt Q95PM1); test: Cysteine protease inhibition, progress curve method, schistosoma B 2; type: biochemical; conditions: 10 uM Cbz-Phe-Arg-AMC, 100 mM Na acetate pH 5.5, 5 mM cysteine
Description: as §1, §2, §3, §4, §5, §6, §7

Cruzain = Cruzain (Trypanosoma cruzi, UniProt P25779); test: Cysteine protease inhibition, progress curve method, cruzain; type: biochemical; conditions: 4 uM Ac-Lys-Glu-Lys-Leu-Arg-AMC, 100 mM Na acetate pH 5.5, 5 mM cysteine; read-out: Cruzain Ki
Summary of the method: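 Kinetic constants from AMC-release progress curves over 20–30 min at ambient temperature in 100 mM Na acetate pH 5.5, 5 mM cysteine, 2% DMSO; enzyme added last to inhibitor plus substrate. Substrates: 10 uM Cbz-Phe-Arg-AMC (Leishmania, Schistosoma), 10 uM Cbz-Leu-Arg-AMC (falcipain), 4 uM Ac-Lys-Glu-Lys-Leu-Arg-AMC (cruzain). Ki,app from linear curves; time-dependent inhibition as kobs/[I].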

Falcipain 2 = Falcipain 2 (Plasmodium falciparum, UniProt Q8I6U4); test: Cysteine protease inhibition, progress curve method, falcipain; type: biochemical; conditions: 10 uM Cbz-Leu-Arg-AMC, 100 mM Na acetate pH 5.5, 5 mM cysteine
Description: as §1, §2, §3, §4, §5, §6, §7

Rhodazain = Rhodazain (Trypanosoma brucei rhodesiense, UniProt Q95PM0); test: Cysteine protease inhibition, progress curve method, rhodazain; type: biochemical, Trypanosoma brucei rhodesiensi; conditions: 10 uM Cbz-Leu-Arg-AMC, 100 mM Na acetate pH 5.5, 5 mM cysteine
Chain of Rhodazain (Q95PM0 entry or part of it): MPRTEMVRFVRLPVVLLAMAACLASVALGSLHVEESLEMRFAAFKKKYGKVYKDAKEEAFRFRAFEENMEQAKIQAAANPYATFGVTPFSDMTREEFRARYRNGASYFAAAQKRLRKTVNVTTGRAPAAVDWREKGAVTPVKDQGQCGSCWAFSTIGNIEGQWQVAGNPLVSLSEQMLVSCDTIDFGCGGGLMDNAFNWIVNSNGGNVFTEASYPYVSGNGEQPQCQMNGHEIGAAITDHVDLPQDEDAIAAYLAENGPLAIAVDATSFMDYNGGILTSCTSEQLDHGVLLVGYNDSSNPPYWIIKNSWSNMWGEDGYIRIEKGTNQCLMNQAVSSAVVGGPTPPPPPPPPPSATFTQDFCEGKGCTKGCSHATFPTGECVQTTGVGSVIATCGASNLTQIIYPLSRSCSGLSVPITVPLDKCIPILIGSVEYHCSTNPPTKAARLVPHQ

Chain of Schisto B 2 (Q95PM1 entry or part of it): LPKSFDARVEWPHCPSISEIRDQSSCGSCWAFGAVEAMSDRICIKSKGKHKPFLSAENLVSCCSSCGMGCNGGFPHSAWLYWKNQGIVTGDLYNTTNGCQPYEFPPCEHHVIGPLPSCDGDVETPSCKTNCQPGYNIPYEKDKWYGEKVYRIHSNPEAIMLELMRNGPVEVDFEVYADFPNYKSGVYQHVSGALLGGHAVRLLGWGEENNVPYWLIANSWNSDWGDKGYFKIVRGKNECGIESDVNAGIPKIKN
Chain of Schisto B 1 (P25792 89-340): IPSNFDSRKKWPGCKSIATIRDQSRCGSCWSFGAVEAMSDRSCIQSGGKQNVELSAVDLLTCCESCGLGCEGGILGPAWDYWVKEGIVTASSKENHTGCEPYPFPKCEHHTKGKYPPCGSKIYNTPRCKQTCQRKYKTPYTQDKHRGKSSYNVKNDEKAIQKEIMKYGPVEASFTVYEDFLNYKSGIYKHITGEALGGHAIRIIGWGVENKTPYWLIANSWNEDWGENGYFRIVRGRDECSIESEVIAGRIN
Chain of Falcipain 2 (Q8I6U4 244-484): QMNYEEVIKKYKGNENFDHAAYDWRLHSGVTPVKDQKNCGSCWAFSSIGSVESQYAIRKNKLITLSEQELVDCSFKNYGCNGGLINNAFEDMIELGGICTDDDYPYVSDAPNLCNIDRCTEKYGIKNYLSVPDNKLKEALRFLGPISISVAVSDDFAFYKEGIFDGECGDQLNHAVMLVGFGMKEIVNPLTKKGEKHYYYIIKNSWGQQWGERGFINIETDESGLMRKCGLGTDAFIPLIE
Chain of Cruzain (P25779 123-337): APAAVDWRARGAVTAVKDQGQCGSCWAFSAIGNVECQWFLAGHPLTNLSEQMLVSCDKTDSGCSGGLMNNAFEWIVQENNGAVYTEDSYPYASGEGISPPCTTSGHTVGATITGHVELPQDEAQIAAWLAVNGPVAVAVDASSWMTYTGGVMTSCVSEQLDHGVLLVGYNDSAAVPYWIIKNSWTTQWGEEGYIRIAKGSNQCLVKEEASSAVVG

Compound: COc1ccc2oc(C(=O)N[C@@H](CC(C)C)C(=O)N[C@H]3CCCN(S(=O)(=O)c4ccc(F)cc4)CC3=O)cc2c1 [Example 85]
- Ki (Schisto B 1): 45 nM
- Ki (Schisto B 2): 130 nM

Compound: CC(C)C[C@H](NC(=O)c1ccc2ccccc2n1)C(=O)N[C@H]1CCCN(S(=O)(=O)c2ccc(F)cc2)CC1=O [Example 83]
- Ki (Schisto B 1): 61 nM
- Ki (Schisto B 2): 230 nM

Compound: CC(C)CC(NC(=O)c1cc2ccccc2o1)C(=O)N[C@@H]1CCCN(S(=O)(=O)c2ccc(F)cc2)CC1=O (stereo partly shown) [Example 109]
- Ki (Schisto B 1): 31 nM
- Ki (Schisto B 2): 120 nM

Compound: CC(C)C[C@@H](NC(=O)c1cc2cc(OCCN3CCOCC3)ccc2o1)C(=O)NC1CCCN(C(=O)Cc2cccc(-c3ccccn3)c2)CC1=O (single isomer, unassigned) [Example 4]
- Ki (Schisto B 1): 100 nM
- Ki (Schisto B 2): 320 nM

Compound: COc1cccc(S(=O)(=O)N2CCC[C@H](NC(=O)[C@H](CC(C)C)NC(=O)c3cc4ccccc4s3)C(=O)C2)c1 [Example 140, Benzo[b]thiophene-2-carboxylic acid-{(S)-1-[1-(3-methoxy-benzenesulfonyl)-3-oxo-azepan-4-ylcarbamoyl]-3-methyl-butyl}-amide]
- Ki (Schisto B 1): 68 nM
- Ki (Schisto B 2): 280 nM

Compound: CC(C)C[C@H](NC(=O)c1cc2ccccc2n1C)C(=O)N[C@H]1CCCN(S(=O)(=O)c2ccc(F)cc2)CC1=O [Example 84]
- Ki (Schisto B 1): 160 nM
- Ki (Schisto B 2): 1100 nM

Compound: CC(C)C[C@@H](NC(=O)c1ccc2ncccc2c1)C(=O)N[C@@H]1CCCN(S(=O)(=O)c2ccccn2)CC1=O (single isomer, unassigned) [Example 152]
- Ki (Cruzain): 2 nM
- Ki (Falcipain 2): 3.1 nM
- Ki (Rhodazain; Rhodazain Ki (nM)): 1.6 nM

Compound: COc1cc2cc(C(=O)N[C@H](CC(C)C)C(=O)N[C@H]3CCCN(S(=O)(=O)c4ccccn4)CC3=O)sc2cc1OC (single isomer, unassigned) [Example 165]
- Ki (Cruzain): 5.5 nM
- Ki (Falcipain 2): 2.5 nM
- Ki (Rhodazain; Rhodazain Ki (nM)): 2.1 nM

Compound: COc1cccc(S(=O)(=O)N2CCC[C@H](NC(=O)[C@H](CC(C)C)NC(=O)c3oc4ccccc4c3C)C(=O)C2)c1 [Example 139, 3-Methyl-benzofuran-2-carboxylic acid-{(S)-1-[1-(3-methoxy-benzenesulfonyl)-3-oxo-azepan-4-ylcarbamoyl]-3-methyl-butyl}-amide]
- Ki (Schisto B 1): 64 nM
- Ki (Schisto B 2): 230 nM

Compound: COc1ccc2oc(C(=O)N[C@H](CC(C)C)C(=O)N[C@@H]3CCCN(S(=O)(=O)c4ncccc4C)CC3=O)cc2c1 (single isomer, unassigned) [Example 171]
- Ki (Cruzain): 2.5 nM
- Ki (Falcipain 2): 4.9 nM
- Ki (Rhodazain; Rhodazain Ki (nM)): 3.2 nM

Compound: CC(C)C[C@@H](NC(=O)c1cnc2ccccc2c1)C(=O)N[C@@H]1CCCN(S(=O)(=O)c2ccccn2)CC1=O (single isomer, unassigned) [Example 156]
- Ki (Cruzain): 4.1 nM
- Ki (Falcipain 2): 6.2 nM
- Ki (Rhodazain; Rhodazain Ki (nM)): 2.6 nM

Compound: CC(C)C[C@@H](NC(=O)c1cc2ccccc2o1)C(=O)N[C@@H]1CCCN(S(=O)(=O)c2cccc[n+]2[O-])CC1=O [Example 45]
- Ki (Cruzain): 4.1 nM
- Ki (Falcipain 2): 5.7 nM
- Ki (Rhodazain; Rhodazain Ki (nM)): 2.8 nM

Compound: CC(C)C[C@@H](NC(=O)c1ccc2[nH]ccc2c1)C(=O)N[C@@H]1CCCN(S(=O)(=O)c2cccc[n+]2[O-])CC1=O [Example 54, 1H-Indole-5-carboxylic acid {(S)-3-methyl-1-[3-oxo-1-(1-oxy-pyridine-2-sulfonyl)-azepan-4-ylcarbamoyl]-butyl}amide]
- Ki (Cruzain): 5.2 nM
- Ki (Falcipain 2): 7.8 nM
- Ki (Rhodazain; Rhodazain Ki (nM)): 4.1 nM

Compound: Benzofblthiophene-2-carboxylic acid {(S)-3-methyl-1-[3-oxo-1-(1-oxy-pyridine-2-sulfonyl)-azepan-4-ylcarbamoyl]-butyl}amide [Example 51]
- Ki (Cruzain): 6.4 nM
- Ki (Falcipain 2): 5.1 nM
- Ki (Rhodazain; read-out: Rhodazain Ki): 3 nM

Compound: CC(C)C[C@@H](NC(=O)c1ccc2ccccc2c1)C(=O)N[C@@H]1CCCN(S(=O)(=O)c2ccccn2)CC1=O (single isomer, unassigned) [Example 155]
- Ki (Cruzain): 4.1 nM
- Ki (Falcipain 2): 6.1 nM
- Ki (Rhodazain; Rhodazain Ki (nM)): 3 nM

Compound: Cc1c(C(=O)N[C@@H](CC(C)C)C(=O)N[C@H]2CCCN(S(=O)(=O)c3ccc(Cl)cc3)CC2=O)oc2ccccc12 [Example 134, 3-Methyl-benzofuran-2-carboxylic acid-{(S)-1-[1-(4-chloro-benzenesulfonyl)-3-oxo-azepan-4-ylcarbamoyl]-3-methyl-butyl}-amide]
- Ki (Schisto B 1): 78 nM
- Ki (Schisto B 2): 360 nM

Compound: COc1cccc2cc(C(=O)N[C@@H](CC(C)C)C(=O)N[C@@H]3CCCN(S(=O)(=O)c4cccs4)CC3=O)oc12 [Example 144, 7-Methoxy-benzofuran-2-carboxylic acid-{(S)-3-methyl-1-[3-oxo-1-(thiophene-2-sulfonyl)-azepan-4-ylcarbamoyl]-butyl}-amide]
- Ki (Cruzain): 5.5 nM
- Ki (Falcipain 2): 6.2 nM
- Ki (Rhodazain; Rhodazain Ki (nM)): 8.6 nM

Compound: COc1ccc2oc(C(=O)N[C@@H](CC(C)C)C(=O)N[C@H]3C[C@H](C)CN(S(=O)(=O)c4ccccn4)CC3=O)cc2c1 [Example 198, 5-Methoxy-benzofuran-2-carboxylic acid {(S)-3-methyl-1-[6-methyl-3-oxo-1-(pyridine-2-sulfonyll)-azepan-4-ylcarbamoyl]-butyl}-amide]
- Ki (Cruzain): 1.9 nM
- Ki (Falcipain 2): 3.6 nM
- Ki (Rhodazain; Rhodazain Ki (nM)): 1.6 nM

Compound: CC(C)C[C@H](NC(=O)c1cc2ccccc2s1)C(=O)N[C@H]1C[C@H](C)CN(S(=O)(=O)c2ccccn2)CC1=O [Example 197, Benzo[b]thiophene-2-carboxylic acid {(S)-3-methyl-1-[6-methyl-3-oxo-1-(pyridine-2-sulfonyl)-azepan-4-ylcarbamoyl]-butyl}-amide]
- Ki (Cruzain): 3.1 nM
- Ki (Falcipain 2): 4.1 nM
- Ki (Rhodazain; Rhodazain Ki (nM)): 2.3 nM

Compound: CC(C)CC(NC(=O)c1cc2ccccc2o1)C(=O)N[C@H]1CCCN(S(=O)(=O)c2nccn2C)CC1=O (stereo partly shown) [Example 40]
- Ki (Cruzain): 2.3 nM
- Ki (Falcipain 2): 4.5 nM
- Ki (Rhodazain; Rhodazain Ki (nM)): 2 nM

Compound: CC(C)C[C@@H](NC(=O)c1ccnc2ccccc12)C(=O)N[C@@H]1CCCN(S(=O)(=O)c2ccccn2)CC1=O (single isomer, unassigned) [Example 153]
- Ki (Cruzain): 2.4 nM
- Ki (Falcipain 2): 4.5 nM
- Ki (Rhodazain; Rhodazain Ki (nM)): 1.6 nM

Compound: CC(C)C[C@H](NC(=O)c1cccc2ncccc12)C(=O)N[C@H]1CCCN(S(=O)(=O)c2ccccn2)CC1=O [Example 185, Quinoline-5-carboxylic acid {(S)-3-methyl-1-[3-oxo-1-(pyridine-2-sulfonyl)-azepan-4-ylcarbamoyl]-butyl}-amide]
- Ki (Cruzain): 1.8 nM
- Ki (Falcipain 2): 4.4 nM
- Ki (Rhodazain; Rhodazain Ki (nM)): 2.1 nM

Compound: Cc1csc(C(=O)NC(CC(C)C)C(=O)N[C@H]2CCCN(C(=O)Nc3ccccc3F)CC2=O)c1 (stereo partly drawn) [Example 220, 4-Methyl-2-carboxylic acid {(S)-1-[-(2-fluoro-phenylcarbamoyl)-3-oxo-azepan-4-ylcarbamoyl]-3-methyl-butyl}-amide]
- Ki (Cruzain): 8.7 nM
- Ki (Falcipain 2): 3.9 nM
- Ki (Rhodazain; Rhodazain Ki (nM)): 4.2 nM

Compound: CC(C)C[C@@H](NC(=O)c1ccc2c(c1)OCO2)C(=O)N[C@@H]1CCCN(S(=O)(=O)c2ccccn2)CC1=O (stereo in doubt) [Example 59, Benzo[1,3]dioxole-5-carboxylic acid {(S)-3-methyl-1-[3-oxo-1-(pyridine-2-sulfonyl)-azepan-4-ylcarbamoyl]-butyl}amide]
- Ki (Cruzain): 3.4 nM
- Ki (Falcipain 2): 3.4 nM
- Ki (Rhodazain; Rhodazain Ki (nM)): 2.4 nM

Compound: CC(C)C[C@H](NC(=O)c1cc2ccccc2o1)C(=O)N[C@H]1CCCN(S(=O)(=O)c2cn(C)cn2)CC1=O [Example 42, Benzofuran-2-carboxylic acid {(S)-3-methyl-1-[1-(1-methyl-1H-imidazole-4-sulfonyl)-3-oxo-azepan-4-ylcarbamoyl]-butyl}amide]
- Ki (Cruzain): 2 nM
- Ki (Falcipain 2): 5.3 nM
- Ki (Rhodazain; Rhodazain Ki (nM)): 1.8 nM
